The target of one assay is TRPM8 (Homo sapiens, UniProt Q7Z2W7). The note with it: super-cooling chemical; comparison with menthol; cited from earlier work.
For assay [1], the system named is Human Foreskin Fibroblasts (HFF). As to the kind of experiment: Fibroblast viability in the in vitro burn model (MTS / trypan blue exclusion). Format: cell-based. The note with it: thermally challenged fibroblasts (50° C., 7.5 minutes), Icilin pre-treatment 0.0002-0.02 nM in DMSO, vs untreated burned fibroblasts, about 24 hours after burning. Here is the method: Human Foreskin Fibroblasts (HFF) (ATCC, Manassas, Va.) were cultured in Dulbecco's Modified Eagle Medium Nutrient Mixture F-12 with 10% Fetal Bovine Serum, 1% penicillin streptomycin. 0.05% Trypsin EDTA was used for subculture (Invitrogen, Grand Isl., N.Y.). Cells were incubated at 370 Celsius and 5% CO2, and grown in 96 well, T25 or T75 Corning Tissue Culture vessels. When cells became confluent, they were trypsinized using 0.05% trypsin/EDTA. Cells used for the various assays were plated at 0.2×10^6 cells/mL unless otherwise noted. Fibroblasts were selected due to their critical role in skin wound recovery. Fibroblasts were fluorescently imaged with a Nikon Eclipse TS100 Microscope (Nikon, Melville, N.Y.). An in vitro burn model was created to replicate the severity of a third-degree burn. Cells were plated in a Polystyrene 96 Well Plate (100 μL per well) then burned in a VWR Incubating Micro Plate Shaker (VWR, Bridgeport, N.J.) via its adjustable heat setting. Thermal trauma (burning) was determined to take place at 50° C. for a total of 7.5 minutes (FIG. 1b). This temperature represented cell viability >50% 24 hours after the thermal injury treatment. […] Proliferation was determined using the MTS assay. […] The 96-well plate was read to measure absorbance at 490 nm using a microplate reader (BioTek, Winooski, Vt.). Viability was determined by trypan blue exclusion assays. […]

A further assay has as its system Interleukin-6 (IL-6). The assay can be described thus: Indirect ELISA of IL-6 expression in fibroblasts. The class given is cell-based, Human. The protocol: (§1) Human Foreskin Fibroblasts (HFF) (ATCC, Manassas, Va.) were cultured in Dulbecco's Modified Eagle Medium Nutrient Mixture F-12 with 10% Fetal Bovine Serum, 1% penicillin streptomycin. 0.05% Trypsin EDTA was used for subculture (Invitrogen, Grand Isl., N.Y.). Cells were incubated at 370 Celsius and 5% CO2, and grown in 96 well, T25 or T75 Corning Tissue Culture vessels. When cells became confluent, they were trypsinized using 0.05% trypsin/EDTA. Cells used for the various assays were plated at 0.2×10^6 cells/mL unless otherwise noted. Fibroblasts were selected due to their critical role in skin wound recovery. Fibroblasts were fluorescently imaged with a Nikon Eclipse TS100 Microscope (Nikon, Melville, N.Y.). An in vitro burn model was created to replicate the severity of a third-degree burn. Cells were plated in a Polystyrene 96 Well Plate (100 μL per well) then burned in a VWR Incubating Micro Plate Shaker (VWR, Bridgeport, N.J.) via its adjustable heat setting. Thermal trauma (burning) was determined to take place at 50° C. for a total of 7.5 minutes (FIG. 1b). This temperature represented cell viability >50% 24 hours after the thermal injury treatment. Temperature of plate was confirmed using a Fluke 63 Infrared Thermometer (Fluke, Phoenix, Ariz.). […] The 96-well plate was read to measure absorbance at 405 nm in a microplate reader (BioTek, Winooski, Vt.).

Assay [2] deals with Transient receptor potential cation channel subfamily M member 8 (TRPM8). The assay can be described thus: TRPM8 expression levels in fibroblasts. Format: cell-based, Human. Here is the method:
Human Foreskin Fibroblasts (HFF) (ATCC, Manassas, Va.) were cultured in Dulbecco's Modified Eagle Medium Nutrient Mixture F-12 with 10% Fetal Bovine Serum, 1% penicillin streptomycin. 0.05% Trypsin EDTA was used for subculture (Invitrogen, Grand Isl., N.Y.). Cells were incubated at 370 Celsius and 5% CO2, and grown in 96 well, T25 or T75 Corning Tissue Culture vessels. When cells became confluent, they were trypsinized using 0.05% trypsin/EDTA. Cells used for the various assays were plated at 0.2×10^6 cells/mL unless otherwise noted. Fibroblasts were selected due to their critical role in skin wound recovery. Fibroblasts were fluorescently imaged with a Nikon Eclipse TS100 Microscope (Nikon, Melville, N.Y.). An in vitro burn model was created to replicate the severity of a third-degree burn. Cells were plated in a Polystyrene 96 Well Plate (100 μL per well) then burned in a VWR Incubating Micro Plate Shaker (VWR, Bridgeport, N.J.) via its adjustable heat setting. Thermal trauma (burning) was determined to take place at 50° C. for a total of 7.5 minutes (FIG. 1b). This temperature represented cell viability >50% 24 hours after the thermal injury treatment. Temperature of plate was confirmed using a Fluke 63 Infrared Thermometer (Fluke, Phoenix, Ariz.). […]

The subject of a further assay is Interleukin-1β (IL-1β). The assay can be described thus: Indirect ELISA of IL-1β expression in fibroblasts. Format: cell-based, Human. Here is the method: as §1
The next assay deals with Interleukin-8 (IL-8). The assay can be described thus: Indirect ELISA of IL-8 expression in fibroblasts. Conditions: non-thermally challenged and thermally challenged fibroblasts, Icilin 0.0002-0.02 nM. Format: cell-based, Human. Here is the method:
as §1

For assay [3], the system named is Reactive Oxygen Species (ROS). The assay can be described thus: ROS-Glo H2O2 assay of Reactive Oxygen Species in fibroblasts. The class given is cell-based, Human. Here is the method: Human Foreskin Fibroblasts (HFF) (ATCC, Manassas, Va.) were cultured in Dulbecco's Modified Eagle Medium Nutrient Mixture F-12 with 10% Fetal Bovine Serum, 1% penicillin streptomycin. 0.05% Trypsin EDTA was used for subculture (Invitrogen, Grand Isl., N.Y.). Cells were incubated at 370 Celsius and 5% CO2, and grown in 96 well, T25 or T75 Corning Tissue Culture vessels. When cells became confluent, they were trypsinized using 0.05% trypsin/EDTA. Cells used for the various assays were plated at 0.2×10^6 cells/mL unless otherwise noted. Fibroblasts were selected due to their critical role in skin wound recovery. Fibroblasts were fluorescently imaged with a Nikon Eclipse TS100 Microscope (Nikon, Melville, N.Y.). An in vitro burn model was created to replicate the severity of a third-degree burn. Cells were plated in a Polystyrene 96 Well Plate (100 μL per well) then burned in a VWR Incubating Micro Plate Shaker (VWR, Bridgeport, N.J.) via its adjustable heat setting. Thermal trauma (burning) was determined to take place at 50° C. for a total of 7.5 minutes (FIG. 1b). This temperature represented cell viability >50% 24 hours after the thermal injury treatment. […] ROS was measured through ROS-GIo™ H2O2 Assay (Promega, Madison, Wis.). […] The well plate was then incubated at room temperature for 20 minutes then measured for luminescence (see FIG. 7).

For assay [4], the system named is Tumor Necrosis Factor-α (TNF-α). As to the kind of experiment: Indirect ELISA of TNF-α expression in fibroblasts. The class given is cell-based, Human. Here is the method: as §1
The mark [5] stands for this setting: non-thermally challenged fibroblasts, all Icilin concentrations.

The structures appear in SMILES notation.

TRPM8, sequence (Q7Z2W7 whole entry, species assumed): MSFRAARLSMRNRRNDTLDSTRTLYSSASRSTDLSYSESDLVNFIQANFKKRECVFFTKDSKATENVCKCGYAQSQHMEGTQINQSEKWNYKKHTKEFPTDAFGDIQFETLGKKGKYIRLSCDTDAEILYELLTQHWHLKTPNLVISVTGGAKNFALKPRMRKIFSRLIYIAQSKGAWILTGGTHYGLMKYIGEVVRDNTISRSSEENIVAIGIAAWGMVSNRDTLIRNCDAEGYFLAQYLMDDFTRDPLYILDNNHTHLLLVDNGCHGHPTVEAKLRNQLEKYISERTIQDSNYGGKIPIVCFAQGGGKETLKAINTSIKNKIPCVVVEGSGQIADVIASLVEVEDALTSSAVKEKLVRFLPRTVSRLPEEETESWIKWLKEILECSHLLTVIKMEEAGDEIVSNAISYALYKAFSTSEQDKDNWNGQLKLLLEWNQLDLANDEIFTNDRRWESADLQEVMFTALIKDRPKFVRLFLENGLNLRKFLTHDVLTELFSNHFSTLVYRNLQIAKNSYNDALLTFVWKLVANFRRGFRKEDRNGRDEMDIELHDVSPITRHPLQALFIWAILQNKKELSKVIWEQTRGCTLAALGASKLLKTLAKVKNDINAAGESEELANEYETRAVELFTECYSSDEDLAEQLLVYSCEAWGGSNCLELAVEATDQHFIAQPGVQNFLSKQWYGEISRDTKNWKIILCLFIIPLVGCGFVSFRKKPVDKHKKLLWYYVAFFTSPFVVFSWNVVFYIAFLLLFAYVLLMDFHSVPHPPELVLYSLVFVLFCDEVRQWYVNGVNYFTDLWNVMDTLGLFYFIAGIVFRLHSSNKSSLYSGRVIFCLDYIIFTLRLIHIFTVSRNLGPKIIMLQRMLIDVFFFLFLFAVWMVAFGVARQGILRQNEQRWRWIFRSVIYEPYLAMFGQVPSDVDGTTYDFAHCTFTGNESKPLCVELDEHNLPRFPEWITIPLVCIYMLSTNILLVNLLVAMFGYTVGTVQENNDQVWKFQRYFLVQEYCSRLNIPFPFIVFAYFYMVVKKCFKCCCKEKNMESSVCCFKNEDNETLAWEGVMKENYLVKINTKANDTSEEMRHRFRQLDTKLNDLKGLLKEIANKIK

On to `O=C1NC(c2cccc([N+](=O)[O-])c2)=CCN1c1ccccc1O` [Icilin], for which the “potency relative to menthol” value on TRPM8 is on record as 200 times. The fibroblast viability entry in assay [1] is “significantly higher than the untreated burned fibroblasts”. The IL-6 expression entry in the assay with Interleukin-6 (IL-6) (non-thermally challenged fibroblasts, Icilin 0.0002-0.02 nM) is given as “increased IL-6 expression”; in the assay on Interleukin-6 (IL-6) (thermally challenged fibroblasts, Icilin pre-treatment 0.0002-0.02 nM), “significant decrease in IL-6 expression”. The TRPM8 expression entry is listed as “significantly increased” in assay [2] (setting [5]) and “increase in TRPM8 expression was maintained” in assay [2] (thermally challenged fibroblasts, Icilin pre-treatment). Besides, in the assay with Interleukin-1β (IL-1β) (non-thermally challenged fibroblasts, increasing concentrations of Icilin), the IL-1β expression result is “IL-1β expression also increases”. Besides, in the assay on Interleukin-1β (IL-1β) (thermally challenged fibroblasts, Icilin pre-treatment, all concentrations), the “IL-1β levels compared with non-thermally challenged fibroblasts at the same Icilin concentration” value was “below the levels of the non-thermally challenged fibroblasts”. The IL-8 expression entry in the assay on Interleukin-8 (IL-8) is listed as “no noteworthy effect on IL-8 expression”. Moreover, the ROS levels result in assay [3] (setting [5]) is on record as “significantly reduces ROS levels”; in assay [3] (thermally challenged fibroblasts, Icilin pre-treatment at 0.02 nM), “essentially restore ROS levels of thermally challenged fibroblasts to their normal quantities”. The TNF-α expression entry is listed as “steady increase in TNF-α expression” in assay [4] (fibroblasts without thermal treatment, increasing Icilin concentrations) and “dropped significantly” in assay [4] (thermally challenged fibroblasts, Icilin pre-treatment, increasing concentrations).
